Data published in PubChem BioAssay (NCI).
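96-well plates; 48 h exposure; 5 concentrations. Endpoints by linear interpolation between flanking doses. Not reached: highest tested concentration assigned. TGI is the concentration that stops growth completely.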

What was measured:
Experiment in all cases: NCI tumour cell line growth inhibition, 48 h
[1] = tested on: A498 renal
[2] = tested on: MOLT-4 leukemia
[3] = tested on: OVCAR-8 ovarian
[4] = tested on: MDA-MB-231 breast
[5] = tested on: KM12 colon
[6] = tested on: OVCAR-3 ovarian
[7] = tested on: HS 578T breast
[8] = tested on: MCF7 breast
[9] = tested on: NCI-H23 lung
[10] = tested on: UO-31 renal
[11] = tested on: HCT-116 colon
[12] = tested on: HT29 colon
[13] = tested on: SK-OV-3 ovarian
[14] = tested on: SNB-75 CNS
[15] = tested on: OVCAR-5 ovarian
[16] = tested on: SW-620 colon
[17] = tested on: NCI/ADR-RES ovarian
[18] = tested on: HL-60(TB) leukemia
[19] = tested on: HCT-15 colon
[20] = tested on: NCI-H522 lung
[21] = tested on: M14 melanoma
[22] = tested on: SF-268 CNS
[23] = tested on: IGROV1 ovarian
[24] = tested on: MDA-MB-435
[25] = tested on: MALME-3M melanoma
[26] = tested on: RXF 393 renal
[27] = tested on: CAKI-1 renal
[28] = tested on: SN12C renal
[29] = tested on: OVCAR-4 ovarian
[30] = tested on: RPMI-8226 leukemia
[31] = tested on: U251 CNS
[32] = tested on: SR leukemia
[33] = tested on: LOX IMVI melanoma
[34] = tested on: MDA-N
[35] = tested on: COLO 205 colon
[36] = tested on: SNB-19 CNS
[37] = tested on: EKVX NSCLC
[38] = tested on: NCI-H226 lung
[39] = tested on: SF-295 CNS
[40] = tested on: K-562 leukemia
[41] = tested on: T-47D breast
[42] = tested on: SK-MEL-2 melanoma
[43] = tested on: ACHN renal
[44] = tested on: UACC-257 melanoma
[45] = tested on: SK-MEL-28 melanoma
[46] = tested on: CCRF-CEM leukemia
[47] = tested on: 786-0 renal
[48] = tested on: PC-3 prostate
[49] = tested on: A549 NSCLC
[50] = tested on: HOP-62 NSCLC
[51] = tested on: SF-539 CNS
[52] = tested on: UACC-62 melanoma
[53] = tested on: DU-145 prostate
[54] = tested on: TK-10 renal
[55] = tested on: HCC-2998 colon
[56] = tested on: SK-MEL-5 melanoma
[57] = tested on: BT-549 breast
[58] = tested on: NCI-H460 lung
[59] = tested on: HOP-92 NSCLC

Structure (SMILES): CS(=O)(=O)c1nc(-c2cc3c(c(S(C)(=O)=O)n2)CCCC3)cc2c1CCCC2
- TGI [1]: > 100 µM
- TGI [2]: > 100 µM
- TGI [3]: > 69.5 µM
- TGI [4]: > 100 µM
- TGI [5]: > 100 µM
- TGI [6]: > 100 µM
- TGI [7]: > 33 µM
- TGI [8]: > 100 µM
- TGI [9]: > 100 µM
- TGI [10]: 0.111 µM
- TGI [11]: > 100 µM
- TGI [12]: > 100 µM
- TGI [13]: > 64.7 µM
- TGI [14]: 25.3 µM
- TGI [15]: > 100 µM
- TGI [16]: > 100 µM
- TGI [17]: > 100 µM
- TGI [18]: > 100 µM
- TGI [19]: > 100 µM
- TGI [20]: > 77.6 µM
- TGI [21]: > 100 µM
- TGI [22]: > 47.3 µM
- TGI [23]: > 43.5 µM
- TGI [24]: > 100 µM
- TGI [25]: > 100 µM
- TGI [26]: > 74.9 µM
- TGI [27]: > 59.1 µM
- TGI [28]: > 100 µM
- TGI [29]: > 100 µM
- TGI [30]: > 100 µM
- TGI [31]: > 100 µM
- TGI [32]: > 100 µM
- TGI [33]: > 100 µM
- TGI [34]: > 100 µM
- TGI [35]: > 100 µM
- TGI [36]: > 100 µM
- TGI [37]: > 100 µM
- TGI [38]: > 100 µM
- TGI [39]: > 93.9 µM
- TGI [40]: > 100 µM
- TGI [41]: > 100 µM
- TGI [42]: > 100 µM
- TGI [43]: > 100 µM
- TGI [44]: > 100 µM
- TGI [45]: > 100 µM
- TGI [46]: > 100 µM
- TGI [47]: > 100 µM
- TGI [48]: > 100 µM
- TGI [49]: > 100 µM
- TGI [50]: > 57.7 µM
- TGI [51]: > 100 µM
- TGI [52]: > 62.3 µM
- TGI [53]: > 100 µM
- TGI [54]: > 100 µM
- TGI [55]: > 100 µM
- TGI [56]: > 100 µM
- TGI [57]: > 82.2 µM

Structure (SMILES): Cc1cc2c(c(C=Nc3ccc([N+](=O)[O-])cc3)c1)OC1(C=C2)Oc2ccccc2C(=O)N1C (stereo not given)
- TGI [1]: 61.6 µM
- TGI [2]: 35 µM
- TGI [3]: 36.9 µM
- TGI [4]: 45 µM
- TGI [5]: 46.2 µM
- TGI [6]: 60.9 µM
- TGI [7]: > 100 µM
- TGI [8]: 46 µM
- TGI [9]: 35.7 µM
- TGI [10]: 42.3 µM
- TGI [11]: 30.9 µM
- TGI [12]: 36.3 µM
- TGI [13]: 59.8 µM
- TGI [14]: 51.8 µM
- TGI [15]: 82.5 µM
- TGI [16]: 81.1 µM
- TGI [17]: 49.1 µM
- TGI [18]: > 100 µM
- TGI [19]: 39.4 µM
- TGI [20]: > 100 µM
- TGI [21]: 57.8 µM
- TGI [22]: 51.2 µM
- TGI [23]: 56.6 µM
- TGI [24]: > 100 µM
- TGI [26]: 47.5 µM
- TGI [27]: 48.4 µM
- TGI [28]: 46.2 µM
- TGI [29]: 64.2 µM
- TGI [30]: 93.1 µM
- TGI [31]: 42.8 µM
- TGI [32]: 55.3 µM
- TGI [33]: 27.1 µM
- TGI [58]: 42.7 µM
- TGI [34]: > 100 µM
- TGI [35]: 54.3 µM
- TGI [36]: > 100 µM
- TGI [59]: 50.9 µM
- TGI [37]: 43.6 µM
- TGI [38]: 46 µM
- TGI [39]: 77.1 µM
- TGI [40]: 91.5 µM
- TGI [41]: 26.9 µM
- TGI [42]: 57.9 µM
- TGI [43]: 50.5 µM
- TGI [44]: 42.4 µM
- TGI [45]: 44.8 µM
- TGI [46]: 39.8 µM
- TGI [47]: 54.3 µM
- TGI [48]: 44.4 µM
- TGI [49]: > 100 µM
- TGI [50]: 82.9 µM
- TGI [52]: 34.9 µM
- TGI [53]: 54.2 µM
- TGI [54]: 74.2 µM
- TGI [55]: 36.2 µM
- TGI [56]: > 100 µM
- TGI [57]: 58.7 µM

Structure (SMILES): CC1=C2C(=O)OCC23C=COC3(C)O1 (stereo not given)
- TGI [1]: > 100 µM
- TGI [2]: > 100 µM
- TGI [3]: > 100 µM
- TGI [4]: > 100 µM
- TGI [5]: 95.9 µM
- TGI [6]: 97.1 µM
- TGI [7]: > 100 µM
- TGI [8]: > 100 µM
- TGI [9]: > 100 µM
- TGI [10]: > 100 µM
- TGI [11]: > 100 µM
- TGI [12]: > 100 µM
- TGI [13]: > 100 µM
- TGI [14]: 77.3 µM
- TGI [15]: > 100 µM
- TGI [16]: > 100 µM
- TGI [17]: > 100 µM
- TGI [19]: > 100 µM
- TGI [20]: 78.9 µM
- TGI [21]: 85.5 µM
- TGI [22]: > 100 µM
- TGI [23]: > 100 µM
- TGI [24]: 53.3 µM
- TGI [25]: 74.5 µM
- TGI [26]: > 100 µM
- TGI [27]: 68.8 µM
- TGI [28]: > 100 µM
- TGI [29]: > 100 µM
- TGI [30]: > 100 µM
- TGI [31]: > 100 µM
- TGI [32]: > 100 µM
- TGI [33]: > 100 µM
- TGI [58]: > 100 µM
- TGI [34]: > 100 µM
- TGI [35]: 47.7 µM
- TGI [36]: > 100 µM
- TGI [59]: > 100 µM
- TGI [37]: > 100 µM
- TGI [38]: 97.8 µM
- TGI [39]: > 100 µM
- TGI [40]: > 100 µM
- TGI [41]: > 100 µM
- TGI [42]: > 100 µM
- TGI [43]: > 100 µM
- TGI [44]: > 100 µM
- TGI [45]: 46.3 µM
- TGI [46]: > 100 µM
- TGI [47]: > 100 µM
- TGI [48]: > 100 µM
- TGI [49]: > 100 µM
- TGI [50]: > 100 µM
- TGI [51]: 65.9 µM
- TGI [52]: 46.7 µM
- TGI [53]: > 100 µM
- TGI [54]: > 100 µM
- TGI [55]: > 100 µM
- TGI [56]: 35.6 µM
- TGI [57]: > 100 µM

Structure (SMILES): CCOC(=O)c1sc2nc(SC)nc3c2c1N=CN3c1ccccc1Cl
- TGI [1]: 56.3 µM
- TGI [2]: > 100 µM
- TGI [3]: > 100 µM
- TGI [4]: > 100 µM
- TGI [5]: > 100 µM
- TGI [6]: > 100 µM
- TGI [7]: 52.3 µM
- TGI [8]: > 100 µM
- TGI [9]: > 100 µM
- TGI [10]: > 100 µM
- TGI [11]: > 100 µM
- TGI [12]: > 100 µM
- TGI [13]: > 100 µM
- TGI [14]: 36.3 µM
- TGI [15]: > 100 µM
- TGI [16]: > 100 µM
- TGI [17]: > 100 µM
- TGI [18]: > 100 µM
- TGI [19]: > 100 µM
- TGI [20]: > 100 µM
- TGI [21]: > 100 µM
- TGI [22]: > 100 µM
- TGI [23]: > 100 µM
- TGI [24]: > 100 µM
- TGI [25]: > 100 µM
- TGI [26]: 68.6 µM
- TGI [27]: 89.1 µM
- TGI [28]: > 100 µM
- TGI [29]: 42.4 µM
- TGI [30]: > 100 µM
- TGI [31]: > 100 µM
- TGI [32]: 89.9 µM
- TGI [33]: > 100 µM
- TGI [58]: > 100 µM
- TGI [34]: > 100 µM
- TGI [35]: > 100 µM
- TGI [36]: > 100 µM
- TGI [59]: 74.5 µM
- TGI [37]: > 100 µM
- TGI [38]: > 100 µM
- TGI [39]: > 100 µM
- TGI [40]: > 100 µM
- TGI [41]: > 100 µM
- TGI [42]: > 100 µM
- TGI [43]: 55.3 µM
- TGI [44]: > 100 µM
- TGI [45]: > 100 µM
- TGI [46]: > 100 µM
- TGI [47]: 33.6 µM
- TGI [48]: > 100 µM
- TGI [49]: > 100 µM
- TGI [50]: 32.6 µM
- TGI [52]: > 100 µM
- TGI [53]: > 100 µM
- TGI [54]: > 100 µM
- TGI [55]: > 100 µM
- TGI [56]: > 100 µM
- TGI [57]: > 100 µM
